Reference: patent EP4043466B1, “PRC2 INHIBITORS” (Mirati Therapeutics, Inc., priority 2018, dated 2019)

Target: purified human, His-tagged PRC2 complex (Homo sapiens, UniProt O75530+Q15910)
Experiment: Hot Spot HMT assay: inhibition of PRC2 enzymatic activity (transfer of tritiated methyl from SAM to core histone, filter binding)
Assay type: biochemical
Conditions: not given
Source text: The assay uses purified human, His-tagged PRC2 complex, including N-terminal His-tagged EZH2 enzyme, N-terminal Flag-tagged embryonic ectoderm development protein (EED), N-terminal His-tagged suppressor of zeste 12 (SUZ12), N-terminal His-tagged AEBP2, and N-terminal His-tagged RbAp48. In this assay, the transfer of the tritiated methyl group from radiolabeled S-adenosyl methionine (SAM) to purified core histone protein by EZH2 is quantitated after filtration to determine the activity of the core PRC2 complex in the presence and absence of compound.
The initial starting concentration for the serial dilutions of each compound was 1.0 µM. […] SAH (S-(5-adenosyl)-L-homocysteine) was used as a positive control for assay validation.
An aliquot of each serial dilution of test compound was added to deep 384 well plate using Acoustic Technology instrument (Echo 550, LabCyte) containing reaction buffer (50 mM Tris-HCl (pH 8.)), 0.01% Brij35, 1 mM EDTA, 1 mM DTT, 1 mM PMSF and 1% DMSO), 10 nM purified PRC2 complex and 0.05 mg/ml core histone H3 in a 5 µl volume. The reaction was mixed gently and then pre-incubated for 20 min at 30°C. The enzymatic reaction was initiated by adding 1 uM S-Adenosyl-L-[methyl - ^3H]methionine and incubated for 1 hr at 30°C. After 1 hr, the reaction product was detected using a filter binding method and the amount of tritiated H3 core histone was quantitated using a scintillation counter.

Chain of purified human, His-tagged PRC2 complex (Q15910 whole entry): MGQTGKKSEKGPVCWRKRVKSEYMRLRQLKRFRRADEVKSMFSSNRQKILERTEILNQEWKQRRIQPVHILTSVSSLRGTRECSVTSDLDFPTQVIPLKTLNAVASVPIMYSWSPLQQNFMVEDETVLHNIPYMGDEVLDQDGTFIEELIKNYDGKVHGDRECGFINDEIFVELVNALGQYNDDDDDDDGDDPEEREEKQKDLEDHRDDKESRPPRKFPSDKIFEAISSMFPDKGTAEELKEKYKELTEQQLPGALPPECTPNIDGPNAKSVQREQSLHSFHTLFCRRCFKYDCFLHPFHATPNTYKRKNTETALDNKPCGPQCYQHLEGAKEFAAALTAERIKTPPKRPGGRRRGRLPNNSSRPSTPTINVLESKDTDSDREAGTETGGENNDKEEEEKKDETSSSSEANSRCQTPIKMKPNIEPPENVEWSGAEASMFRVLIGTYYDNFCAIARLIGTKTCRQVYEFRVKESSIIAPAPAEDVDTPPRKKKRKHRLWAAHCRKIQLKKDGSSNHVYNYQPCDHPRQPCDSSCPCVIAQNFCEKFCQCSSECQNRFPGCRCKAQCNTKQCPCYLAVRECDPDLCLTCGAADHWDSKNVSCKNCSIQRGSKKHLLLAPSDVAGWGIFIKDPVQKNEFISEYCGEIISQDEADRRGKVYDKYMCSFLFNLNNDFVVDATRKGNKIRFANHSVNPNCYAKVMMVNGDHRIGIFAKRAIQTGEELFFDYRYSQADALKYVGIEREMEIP
Chain of purified human, His-tagged PRC2 complex (O75530 whole entry): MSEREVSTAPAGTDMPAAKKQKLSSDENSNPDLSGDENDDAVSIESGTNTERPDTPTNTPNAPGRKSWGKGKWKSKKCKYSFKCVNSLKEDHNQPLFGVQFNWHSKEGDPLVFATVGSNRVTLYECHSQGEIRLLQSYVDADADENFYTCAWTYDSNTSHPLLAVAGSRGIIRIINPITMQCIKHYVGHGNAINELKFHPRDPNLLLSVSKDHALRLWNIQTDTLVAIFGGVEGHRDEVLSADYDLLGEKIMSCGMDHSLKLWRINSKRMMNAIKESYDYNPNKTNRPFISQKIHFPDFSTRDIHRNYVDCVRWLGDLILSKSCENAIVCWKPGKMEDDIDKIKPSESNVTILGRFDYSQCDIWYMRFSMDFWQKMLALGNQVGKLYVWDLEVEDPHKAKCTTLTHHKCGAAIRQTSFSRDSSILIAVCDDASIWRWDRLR
Chain of purified human, His-tagged PRC2 complex (Q15022 whole entry partner): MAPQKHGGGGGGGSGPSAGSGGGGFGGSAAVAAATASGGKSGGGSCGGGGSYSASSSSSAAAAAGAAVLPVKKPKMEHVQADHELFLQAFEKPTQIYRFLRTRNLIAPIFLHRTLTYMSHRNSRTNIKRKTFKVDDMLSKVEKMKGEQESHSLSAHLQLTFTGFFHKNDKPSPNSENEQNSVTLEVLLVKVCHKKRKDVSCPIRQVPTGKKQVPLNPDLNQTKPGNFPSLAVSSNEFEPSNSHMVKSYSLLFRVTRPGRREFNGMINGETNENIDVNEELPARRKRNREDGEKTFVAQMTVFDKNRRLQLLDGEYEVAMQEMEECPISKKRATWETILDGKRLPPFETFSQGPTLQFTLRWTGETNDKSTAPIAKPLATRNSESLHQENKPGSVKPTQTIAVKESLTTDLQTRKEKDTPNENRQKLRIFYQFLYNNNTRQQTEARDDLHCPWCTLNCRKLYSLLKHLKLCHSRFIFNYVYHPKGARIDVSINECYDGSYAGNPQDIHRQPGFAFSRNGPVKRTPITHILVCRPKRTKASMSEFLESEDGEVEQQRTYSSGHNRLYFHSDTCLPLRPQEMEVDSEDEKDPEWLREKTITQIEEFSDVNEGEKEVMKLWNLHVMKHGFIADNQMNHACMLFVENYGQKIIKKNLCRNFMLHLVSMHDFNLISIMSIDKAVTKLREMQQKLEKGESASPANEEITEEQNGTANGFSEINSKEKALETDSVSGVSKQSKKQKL
Chain of purified human, His-tagged PRC2 complex (Q6ZN18 whole entry partner): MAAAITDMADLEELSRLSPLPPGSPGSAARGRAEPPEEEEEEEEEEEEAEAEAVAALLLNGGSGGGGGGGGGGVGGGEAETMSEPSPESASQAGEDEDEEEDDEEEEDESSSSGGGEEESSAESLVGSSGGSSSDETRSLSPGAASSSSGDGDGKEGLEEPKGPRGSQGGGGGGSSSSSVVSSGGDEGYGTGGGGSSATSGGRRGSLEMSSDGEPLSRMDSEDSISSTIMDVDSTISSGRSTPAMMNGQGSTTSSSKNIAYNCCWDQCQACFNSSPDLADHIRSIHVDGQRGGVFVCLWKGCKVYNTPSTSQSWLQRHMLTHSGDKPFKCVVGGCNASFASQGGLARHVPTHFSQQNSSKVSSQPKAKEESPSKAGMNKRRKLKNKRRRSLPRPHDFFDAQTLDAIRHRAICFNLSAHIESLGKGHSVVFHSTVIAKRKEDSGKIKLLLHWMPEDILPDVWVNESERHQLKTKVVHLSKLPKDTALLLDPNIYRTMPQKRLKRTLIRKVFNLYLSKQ
Chain of purified human, His-tagged PRC2 complex (Q09028 whole entry partner): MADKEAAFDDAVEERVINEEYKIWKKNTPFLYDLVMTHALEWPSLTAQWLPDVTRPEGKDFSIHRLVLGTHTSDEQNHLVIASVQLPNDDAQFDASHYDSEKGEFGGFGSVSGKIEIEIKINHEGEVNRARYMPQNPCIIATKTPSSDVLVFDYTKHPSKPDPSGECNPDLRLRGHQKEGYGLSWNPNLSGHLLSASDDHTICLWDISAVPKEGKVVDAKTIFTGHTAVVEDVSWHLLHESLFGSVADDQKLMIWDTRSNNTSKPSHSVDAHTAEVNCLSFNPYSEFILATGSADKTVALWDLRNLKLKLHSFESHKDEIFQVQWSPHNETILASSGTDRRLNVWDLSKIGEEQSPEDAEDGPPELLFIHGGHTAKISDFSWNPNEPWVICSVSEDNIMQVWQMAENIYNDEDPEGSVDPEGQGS

| Compound | IC50 [nM] |
| --- | --- |
| CNCc1cc(-c2cnc(NCc3c(F)ccc4c3CCO4)n3cc(C#N)nc23)n(C)n1 [Example 211, 5-(((5-fluoro-2,3-dihydrobenzofuran-4-yl)methyl)amino)-8-(1-methyl-3-((methylamino)methyl)-1H-pyrazol-5-yl)imidazo[1,2-c]pyrimidine-2-carbonitrile] | < 100 |

Same assay, conditions: Inhibition of PRC2-mediated enzymatic activity; 10 nM PRC2 complex, 0.05 mg/ml core histone H3, 1 uM 3H-SAM, 1 hr at 30°C

| Compound | IC50 [nM] |
| --- | --- |
| 8-(1,3-dimethyl-1H-pyrazol-5-yl)-5-(((6-fluorochroman-5-yl)methyl)amino)imidazo[1,2-c]pyrimidine-2-carbonitrile [Example 122] | > 500 |
| 5-(((5-fluoro-2,3-dihydrobenzofuran-4-yl)methyl)amino)-8-(4-methyl-1H-imidazol-1-yl)imidazo[1,2-c]pyrimidine-2-carboxamide [Example 17] | 100 to 500 |
| COc1cc(C)c(-c2cnc(NCc3c(F)ccc4c3CCO4)n3cc(C#N)nc23)cn1 [Example 24, 5-(((5-fluoro-2,3-dihydrobenzofuran-4-yl)methyl)amino)-8-(6-methoxy-4-methylpyridin-3-yl)imidazo[1,2-c]pyrimidine-2-carbonitrile] | 100 to 500 |
| N#Cc1cn2c(NCc3c(F)ccc4c3CCO4)ncc(-c3cnn(C4CCOCC4)c3)c2n1 [Example 120, 5-(((5-fluoro-2,3-dihydrobenzofuran-4-yl)methyl)amino)-8-(1-(tetrahydro-2H-pyran-4-yl)-1H-pyrazol-4-yl)imidazo[1,2-c]pyrimidine-2-carbonitrile] | > 500 |
| Cc1cc(-c2cnc(NCc3cccc4c3OCO4)n3cc(C#N)nc23)n(C)n1 [Example 27, 5-((benzo[d][1,3]dioxol-4-ylmethyl)amino)-8-(1,3-dimethyl-1H-pyrazol-5-yl)imidazo[1,2-c]pyrimidine-2-carbonitrile] | > 500 |
| Cc1ncccc1-c1cnc(NCc2c(F)ccc3occc23)n2cc(C#N)nc12 [Example 22, 5-(((5-fluorobenzofuran-4-yl)methyl)amino)-8-(2-methylpyridin-3-yl)imidazo[1,2-c]pyrimidine-2-carbonitrile] | 100 to 500 |
| N#Cc1cn2c(NCc3c(F)ccc4c3CCO4)ncc(C3CCOCC3)c2n1 [Example 141, 5-(((5-fluoro-2,3-dihydrobenzofuran-4-yl)methyl)amino)-8-(tetrahydro-2H-pyran-4-yl)imidazo[1,2-c]pyrimidine-2-carbonitrile] | > 500 |
| N#Cc1cn2c(NCc3c(F)ccc4c3CCO4)ncc(-c3ccnn3CCO)c2n1 [Example 231, 5-(((5-fluoro-2,3-dihydrobenzofuran-4-yl)methyl)amino)-8-(1-(2-hydroxyethyl)-1H-pyrazol-5-yl)imidazo[1,2-c]pyrimidine-2-carbonitrile] | 100 to 500 |
| N#Cc1cn2c(NCc3c(F)ccc4c3CCO4)ncc(-c3n[nH]cc3Br)c2n1 [Example 232, 8-(4-bromo-1H-pyrazol-3-yl)-5-(((5-fluoro-2,3-dihydrobenzofuran-4-yl)methyl)amino)imidazo[1,2-c]pyrimidine-2-carbonitrile] | 100 to 500 |
| Cc1nn(C(C)C)c(C)c1-c1cnc(NCc2c(F)ccc3c2CCO3)n2cc(C#N)nc12 [Example 92, 5-(((5-fluoro-2,3-dihydrobenzofuran-4-yl)methyl)amino)-8-(1-isopropyl-3,5-dlmethyl-1H-pyrazol-4-yl)imidazo[1,2-c]pyrimidine-2-carbonitrile] | 100 to 500 |

Further lines, results first:

| IC50 [nM] | Compound |
| --- | --- |
| < 100 | CN(C)Cc1ncc(-c2cnc(NCc3c(F)ccc4c3CCO4)n3cc(C#N)nc23)cn1 [Example 216, 8-(2-((dimethylamino)methyl)pyrimidin-5-yl)-5-(((5-fluoro-2,3-dihydrobenzofuran-4-yl)methyl)amino)imidazo[1,2-c]pyrimidine-2-carbonitrile] |
| 100 to 500 | CN(C)CCn1cc(-c2cnc(NCc3c(F)ccc4c3CCO4)n3cc(C#N)nc23)cn1 [Example 102, 8-(1-(2-(dimethylamino)ethyl)-1H-pyrazol-4-yl)-5-(((5-fluoro-2,3-dihydrobenzofuran-4-yl)methyl)amino)imidazo[1,2-c]pyrimidine-2-carbonitrile] |
| < 100 | N#Cc1cn2c(NCc3c(F)ccc4c3CCO4)ncc(-c3ccc(CN4CCC(O)C4)cc3)c2n1 (centres unmarked) [Example 151, 5-(((5-fluoro-2,3-dihydrobenzofuran-4-yl)methyl)amino)-8-(4-((3-hydroxypyrrolidin-1-yl)methyl)phenyl)imidazo[1,2-c]pyrimidine-2-carbonitrile] |
| < 100 | N#Cc1cn2c(NCc3c(F)ccc4c3CCO4)ncc(-c3cnccc3Cl)c2n1 [Example 109, 8-(4-chloropyridin-3-yl)-5-(((5-fluoro-2,3-dihydrobenzofuran-4-yl)methyl)amino)imidazo[1,2-c]pyrimidine-2-carbonitrile] |
| 100 to 500 | COc1cncc(-c2cnc(NCc3c(F)ccc4c3CCO4)n3cc(C#N)nc23)c1 [Example 93, 5-(((5-fluoro-2,3-dihydrobenzofuran-4-yl)methyl)amino)-8-(5-methoxypyridin-3-yl)imidazo[1,2-c]pyrimidine-2-carbonitrile] |
| < 100 | N#Cc1cn2c(NCc3c(F)ccc4c3CCO4)ncc(-c3ccc(CN4CCC(F)(F)C4)cc3)c2n1 [Example 55, 8-(4-((3,3-difluoropyrrolidin-1-yl)methyl)phenyl)-5-(((5-fluoro-2,3-dihydrobenzofuran-4-yl)methyl)amino)imidazo[1,2-c]pyrimidine-2-carbonitrile] |
| 100 to 500 | N#Cc1cn2c(NCc3c(F)ccc4c3CCO4)ncc(-c3ccc(C(F)(F)F)nc3)c2n1 [Example 126, 5-(((5-fluoro-2,3-dihydrobenzofuran-4-yl)methyl)amino)-8-(6-(trifluoromethyl)pyridin-3-yl)imidazo[1,2-c]pyrimidine-2-carbonitrile] |
| < 100 | CC(C)n1cc(-c2cnc(NCc3c(F)ccc4c3CCO4)n3cc(C#N)nc23)cn1 [Example 99, 5-(((5-fluoro-2,3-dihydrobenzofuran-4-yl)methyl)amino)-8-(1-isopropyl-1H-pyrazol-4-yl)imidazo[1,2-c]pyrimidine-2-carbonitrile] |
| < 100 | N#Cc1cn2c(NCc3c(F)ccc4c3CCO4)ncc(-c3ccc(N4CCCCC4)nc3)c2n1 [Example 135, 5-(((5-fluoro-2,3-dihydrobenzofuran-4-yl)methyl)amino)-8-(6-(piperidin-1-yl)pyridin-3-yl)imidazo[1,2-c]pyrimidine-2-carbonitrile] |
| < 100 | CN1CCC1c1ccc(-c2cnc(NCc3c(F)ccc4c3CCO4)n3cc(C#N)nc23)cc1 (centres unmarked) [Example 221, 5-(((5-fluoro-2,3-dihydrobenzofuran-4-yl)methyl)amino)-8-(4-(1-methylazetidin-2-yl)phenyl)imidazo[1,2-c]pyrimidine-2-carbonitrile] |
| < 100 | Cc1c(-c2cnc(NCc3c(F)ccc4c3CCO4)n3cc(C(=O)O)nc23)cnn1C(C)C [Example 8, 5-(((5-fluoro-2,3-dihydrobenzofuran-4-yl)methyl)amino)-8-(1-isopropyl-5-methyl-1H-pyrazol-4-yl)imidazo[1,2-c]pyrimidine-2-carboxylic acid] |
| < 100 | Cc1n[nH]cc1-c1cnc(NCc2c(F)ccc3c2CCO3)n2cc(C#N)nc12 [Example 79, 5-(((5-fluoro-2,3-dihydrobenzofuran-4-yl)methyl)amino)-8-(3-methyl-1H-pyrazol-4-yl)imidazo[1,2-c]pyrimidine-2-carbonitrile] |
